Experimental data as given in the supplement of paper PMC10307832.

Legend:
Test in all cases: relative viability (nuclei count vs DMSO), 5 days (fraction); higher = more cells survive
[1] = compound: O=C(NCCCNc1nc(Nc2cccc(NC(=O)N3CCCC3)c2)ncc1I)c1cccs1 [BX 795]
Outline: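 Viability was read as treated-well nuclei divided by vehicle-well nuclei, using the median across plates. Lung cancer cell lines in 1536-well plates were kept overnight at 37 °C, pinned with five √10-spaced library-drug doses, and after 5 days were Hoechst-stained, imaged at 4× and counted in MetaXpress. Plates passed only with control CV below 25% and at least one doubling.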

[2] = compound: O=C(NCCCNc1nc(Nc2cccc(NC(=O)N3CCCC3)c2)ncc1I)c1cccs1 [BX 795] + CCNC(=O)c1noc(-c2cc(C(C)C)c(O)cc2O)c1-c1ccc(CN2CCOCC2)cc1 [Luminespib] (partner 0.01 µM)
Outline: (§1)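 Values are medians from duplicate plates. Each reflects relative viability, defined as the nuclei count of treated wells over that of vehicle wells. Lung cancer cell lines in 1536-well plates were pin-tool dosed one day after seeding with one drug alone or with a fixed anchor-drug dose plus five library-drug doses (not always all listed) in √10 steps, then fixed, stained and imaged at 4× after 5 days.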

[3] = compound: O=C(NCCCNc1nc(Nc2cccc(NC(=O)N3CCCC3)c2)ncc1I)c1cccs1 [BX 795] + CS(=O)(=O)CCNCc1ccc(-c2ccc3ncnc(Nc4ccc(OCc5cccc(F)c5)c(Cl)c4)c3c2)o1 [Lapatinib] (partner 2 µM)
Outline: as §1

[4] = compound: O=C(NCCCNc1nc(Nc2cccc(NC(=O)N3CCCC3)c2)ncc1I)c1cccs1 [BX 795] + C[C@@H](Oc1cc(-c2cnn(C3CCNCC3)c2)cnc1N)c1c(Cl)ccc(F)c1Cl [Crizotinib] (partner 1 µM)
Outline: as §1

[5] = compound: O=C(NCCCNc1nc(Nc2cccc(NC(=O)N3CCCC3)c2)ncc1I)c1cccs1 [BX 795] + O=C(CCCCCCC(=O)Nc1ccccc1)NO [Vorinostat] (partner 1 µM)
Outline: as §1

Row | Cell Line | relative viability ([1]; 0.04 µM) | relative viability ([1]; 0.1265 µM) | relative viability ([1]; 0.4 µM) | relative viability ([1]; 1.265 µM) | relative viability ([2]; first compound 0.04 µM) | relative viability ([2]; first compound 0.1265 µM) | relative viability ([2]; first compound 0.4 µM) | relative viability ([2]; first compound 1.265 µM) | relative viability ([3]; first compound 0.04 µM) | relative viability ([3]; first compound 0.1265 µM) | relative viability ([3]; first compound 0.4 µM) | relative viability ([3]; first compound 1.265 µM) | relative viability ([4]; first compound 0.04 µM) | relative viability ([4]; first compound 0.1265 µM) | relative viability ([4]; first compound 0.4 µM) | relative viability ([4]; first compound 1.265 µM) | relative viability ([5]; first compound 0.04 µM) | relative viability ([5]; first compound 0.1265 µM) | relative viability ([5]; first compound 0.4 µM) | relative viability ([5]; first compound 1.265 µM)
1 | NCI-H3122 | 0.981 | 1.01 | 1.04 | 1.06 | 0.0821 | 0.114 | 0.0793 | 0.0891 | 1.04 | 1 | 1.09 | 1.05 | 0.293 | 0.266 | 0.282 | 0.296 | 0.715 | 1.03 | 1.11 | 0.679
2 | PC-3 [JPC-3] | 1.07 | 0.979 | 1.04 | 1 | 0.67 | 0.628 | 0.774 | 0.698 | 0.451 | 0.449 | 0.447 | 0.453 | 1.04 | 0.993 | 1.06 | 0.946 | 0.766 |  | 0.929 | 0.809
3 | PC-14 | 0.948 | 0.997 | 0.944 | 0.719 | 0.138 | 0.113 | 0.138 | 0.117 | 0.284 | 0.35 | 0.271 | 0.203 | 0.879 | 0.919 | 0.851 | 0.602 | 0.819 | 0.778 | 0.424 | 0.433
4 | RERF-LC-KJ | 1.06 | 0.949 | 1.02 | 0.908 | 1.41 | 1.27 | 1.29 | 0.753 | 0.865 | 0.764 | 0.886 | 0.792 | 0.86 | 0.767 | 0.699 | 0.669 |  | 0.667 | 0.59 | 0.541
